For this test, the system named is Saccharomyces cerevisiae. The test is described as follows: Inhibition of Saccharomyces cerevisiae alpha-glucosidase at 100 uM using p-nitrophenyl alpha-Dglucopyranoside as substrate preincubated for 15 mins followed by substrate addition and measured after 20 mins relative to control.

As for `C[C@H]1[C@H](C)CC[C@]2(C(=O)O)CC[C@]3(C)C(=CC[C@@H]4[C@@]5(C)C[C@@H](O)[C@H](O)[C@@](C)(COC(=O)/C=C/c6ccc(O)cc6)[C@@H]5CC[C@]43C)[C@H]12`, the inhibition is 67%.

In turn, `C=C1CC[C@]2(C(=O)O)CC[C@]3(C)C(=CC[C@@H]4[C@@]5(C)C[C@@H](O)[C@H](O)[C@@](C)(CO)[C@@H]5CC[C@]43C)[C@@H]2[C@H]1C` returned an inhibition of 13%.

Turning to `C=C1CC[C@]2(C(=O)O)CC[C@]3(C)C(=CC[C@@H]4[C@@]5(C)C[C@@H](O)[C@H](O)[C@@](C)(COC(=O)/C=C/c6ccc(O)cc6)[C@@H]5CC[C@]43C)[C@@H]2[C@H]1C`, the inhibition amounted to 59.9%.

Take `C[C@H]1[C@H](C)CC[C@]2(C(=O)O)CC[C@]3(C)C(=CC[C@@H]4[C@@]5(C)C[C@@H](O)[C@H](OC(=O)/C=C/c6ccc(O)c(O)c6)[C@@](C)(CO)[C@@H]5CC[C@]43C)[C@H]12`: the inhibition stood at 72.8%.

`C=C1CC[C@]2(C(=O)O)CC[C@]3(C)C(=CC[C@@H]4[C@@]5(C)C[C@@H](O)[C@H](O)[C@@](C)(COC(=O)/C=C\c6ccc(O)cc6)[C@@H]5CC[C@]43C)[C@@H]2[C@H]1C` yielded an inhibition of 38.8%.

Consider `C=C1C=C[C@]2(C(=O)O)CC[C@]3(C)C(=CC[C@@H]4[C@@]5(C)C[C@@H](O)[C@@H](O)[C@@](C)(CO)[C@@H]5CC[C@]43C)[C@@H]2[C@H]1C`, for which the inhibition was determined as 3%.

In turn, `C[C@H]1[C@H](C)CC[C@]2(CO)CC[C@]3(C)C(=CC(=O)[C@@H]4[C@@]5(C)CC[C@H](O)C(C)(C)[C@@H]5CC[C@]43C)[C@H]12` returned an inhibition of 34.3%.

`C=C1CC[C@]2(C(=O)O)CC[C@]3(C)C(=CC[C@@H]4[C@@]5(C)C[C@@H](OC(=O)/C=C/c6ccc(O)cc6)[C@H](O)[C@@](C)(CO)[C@@H]5CC[C@]43C)[C@@H]2[C@H]1C` displayed an inhibition of 70.1%.

`CO[C@@H]1C(O)=C2[C@@H]3[C@@H](C)[C@H](C)CC[C@]3(C)CC[C@@]2(C)[C@]2(C)CC[C@H]3C(C)(C)[C@@H](O)CC[C@]3(C)[C@@H]12`: the inhibition came out at 23.9%.

Molecule `C[C@H]1[C@H](C)CC[C@]2(C(=O)O)CC[C@]3(C)C(=CC[C@@H]4[C@@]5(C)C[C@@H](O)[C@H](OC(=O)/C=C/c6ccc(O)cc6)[C@@](C)(CO)[C@@H]5CC[C@]43C)[C@H]12` came in with an inhibition of 81.3%.

Regarding `C[C@H]1O[C@H](O[C@H]2[C@H](O)[C@@H](O)[C@@H](O[C@H]3[C@H](O)[C@@H](O)C(O)O[C@@H]3CO)O[C@@H]2CO)[C@H](O)[C@@H](O)[C@@H]1N[C@H]1C=C(CO)[C@@H](O)[C@H](O)[C@H]1O` (stereo partly specified), the inhibition was 72.8%.

The molecule `C=C1CC[C@]2(C(=O)O)CC[C@]3(C)C(=CC[C@@H]4[C@@]5(C)C[C@@H](O)[C@H](OC(=O)/C=C\c6ccc(O)cc6)[C@@](C)(CO)[C@@H]5CC[C@]43C)[C@@H]2[C@H]1C` showed an inhibition of 41.4%.

Consider `C[C@H]1[C@H](C)CC[C@]2(C(=O)O)CC[C@]3(C)C(=CC[C@@H]4[C@@]5(C)C[C@@H](O)[C@H](O)[C@@](C)(COC(=O)/C=C\c6ccc(O)cc6)[C@@H]5CC[C@]43C)[C@H]12`, for which the inhibition was 59%.

Molecule `C=C1CC[C@]2(C(=O)O)CC[C@]3(C)C(=CC[C@@H]4[C@@]5(C)C[C@@H](O)[C@@H](O)[C@@](C)(CO)[C@@H]5CC[C@]43C)[C@@H]2[C@H]1C` showed an inhibition of 1.7%.

The molecule `C=C1CC[C@]2(C(=O)O)CC[C@]3(C)C(=CC[C@@H]4[C@@]5(C)C[C@@H](O)[C@H](OC(=O)/C=C/c6ccc(O)cc6)[C@@](C)(CO)[C@@H]5CC[C@]43C)[C@@H]2[C@H]1C` came in with an inhibition of 65.8%.

As for `C[C@H]1[C@H](C)CC[C@]2(C(=O)O)CC[C@]3(C)C(=CC[C@@H]4[C@@]5(C)C[C@@H](OC(=O)/C=C/c6ccc(O)cc6)[C@H](O)[C@@](C)(CO)[C@@H]5CC[C@]43C)[C@H]12`, the inhibition amounted to 67.2%.

As usually defined, the inhibition is the percentage by which the read-out fell short of the control. High values mean strong suppression, low ones little suppression.

The values are drawn from ChEMBL document CHEMBL4616660, “Phenylpropanoid-Conjugated Triterpenoids from the Leaves of Actinidia arguta and Their Inhibitory Activity on α-Glucosidase” (J Nat Prod, 2020).
